Test results from patent US20260306502A1, “MITOCHONDRIAL UNCOUPLERS FOR TREATMENT OF METABOLIC DISEASES AND CANCER” (Mito Biopharma, LLC, priority 2022, published 2026).

Tests used:
C2C12 cells = assay: Mitochondrial uncoupling activity by oxygen consumption rate (OCR) assay, Seahorse, in presence of oligomycin; assay type: cell-based, mouse; conditions: Mus musculus, C2C12; in the presence of oligomycin 2.5 μM; read-out: COCR-min: minimal concentration increasing OCR in the presence of oligomycin
Protocol: By definition, mitochondrial uncoupling is the decoupling of mitochondrial electron transport chain activity (mitochondrial oxidation) from ATP synthesis by mitochondrial ATP synthase. Technically, mitochondrial uncoupling activity is defined by the ability of a chemical compound to induce oxygen consumption of cells or isolated mitochondria in the presence of a mitochondrial ATP synthase inhibitor such as oligomycin. Accordingly, mitochondrial uncoupling activity was determined by oxygen consumption rate assay with a Seahorse XF96 or a Seahorse XF24 instrument following the vendor's instruction, using mouse myoblast C2C12 cells grown in a medium containing 10% fetal bovine serum. OCR was measured stepwise under the following conditions: first under normal growth conditions; then. OCR was measured after oligomycin was added to reach a final concentration of 2.5 μM); then OCR was measured after the compound was further added at varying concentrations. Finally, rotenone and antimycin A were added to confirm that the measurement was mitochondrial oxygen consumption (rotenone and […] mitochondrial electron transport chain inhibitors).
COCR-min the minimal concentration required for each compound to induce OCR in the presence of oligomycin, of disclosed compounds, was also determined by varying the final concentration of the compound added to the Seahorse OCR analysis experiment as described above (FIG. 2, varying testing compound concentration). Table 8 summarizes the mitochondrial uncoupling activity of disclosed compounds, as represented by COCR-min.

[1] = PO pharmacokinetic study, oral exposure (Example B3); assay type: in vivo; conditions: blood, po; for AUC at 24 h: 10 mg/kg gavage
Protocol: The blood concentration of the compound was then determined at 0 (pre-dosing), 5 min, 15 min, 30 min, 1 hr, 2 hr, 4 hr, 8 hr, 24 hr time points by LC-MS/MS analysis (See Tables 1 and 2, vide supra).

## COC1CCN(Cc2cc(Cl)cc(C(=O)Nc3nc4ccc(C(F)(F)F)cc4s3)c2O)C1 (stereo not drawn) [Compound 32, 5-chloro-2-hydroxy-3-((3-methoxypyrrolidin-1-yl)methyl)-N-(6-(trifluoromethyl)benzo[d]thiazol-2-yl)benzamide]
C2C12 cells
  minimal effective concentration: < 5 µM
[1]
  AUC at 24 h: 30000 to 60000 ng·h/mL

## COCCOCc1cc(C(F)(F)F)cc2sc(NC(=O)c3cc(Cl)cc(CN4CCOCC4)c3O)nc12 [Compound 65, 5-chloro-2-hydroxy-N-(4-((2-methoxyethoxy)methyl)-6-(trifluoromethyl)benzo[d]thiazol-2-yl)-3-(morpholinomethyl)benzamide]
C2C12 cells
  minimal effective concentration: < 5 µM
[1]
  AUC at 24 h: 60000 to 120000 ng·h/mL

## O=C(Nc1nc2ccc(C(F)(F)F)cc2s1)c1cc(Cl)cc(CN2CCCCC2)c1O [Compound 26, 5-chloro-2-hydroxy-3-(piperidin-1-ylmethyl)-N-(6-(trifluoromethyl)benzo[d]thiazol-2-yl)benzamide]
C2C12 cells
  minimal effective concentration: < 5 µM
[1]
  AUC at 24 h: 10000 to 30000 ng·h/mL

## COc1cc(Cl)cc(C(=O)Nc2nc3ccc(C(F)(F)F)cc3s2)c1O [Example 97, 5-chloro-2-hydroxy-3-methoxy-N-(6-(trifluoromethyl)benzo[d]thiazol-2-yl)benzamide]
C2C12 cells
  minimal effective concentration: < 5 µM
[1]
  AUC at 24 h: 10000 to 30000 ng·h/mL

## COCc1cc(Cl)cc(C(=O)Nc2nc3ccc(C(F)(F)F)cc3s2)c1O [Compound 9, 5-chloro-2-hydroxy-3-(methoxymethyl)-N-(6-(trifluoromethyl)benzo[d]thiazol-2-yl)benzamide]
C2C12 cells
  minimal effective concentration: < 5 µM
[1]; 10 mg/kg
  AUC(0-t) at 24 h: 180000 ng·h/mL
[1]
  AUC at 24 h: > 120000 ng·h/mL

## Cc1cc(Cl)cc(C(=O)Nc2nc3c(CN4CCN(C)CC4)cc(C(F)(F)F)cc3s2)c1O [Example 78, 5-chloro-2-hydroxy-3-methyl-N-(4-((4-methylpiperazin-1-yl)methyl)-6-(trifluoromethyl)benzo[d]thiazol-2-yl)benzamide]
C2C12 cells
  minimal effective concentration: < 5 µM
[1]; 10 mg/kg
  AUC(0-t) at 24 h: 58400 ng·h/mL
[1]
  AUC at 24 h: 30000 to 60000 ng·h/mL

## Cc1cc(Cl)cc(C(=O)Nc2nc3c(COCCO)cc(C(F)(F)F)cc3s2)c1O [Compound 88, 5-chloro-2-hydroxy-N-(4-((2-hydroxyethoxy)methyl)-6-(trifluoromethyl)benzo[d]thiazol-2-yl)-3-methylbenzamide]
C2C12 cells
  minimal effective concentration: 5 to 10 µM

## O=C(Nc1nc2ccc(C(F)(F)F)cc2s1)c1cc(Cl)cc(C2CCOC2)c1O (stereo not drawn) [Compound 14, 5-chloro-2-hydroxy-3-(tetrahydrofuran-3-yl)-N-(6-(trifluoromethyl)benzo[d]thiazol-2-yl)benzamide]
C2C12 cells
  minimal effective concentration: < 5 µM
[1]
  AUC at 24 h: > 120000 ng·h/mL

## Cc1cc(Cl)cc(C(=O)Nc2nc3c(COCCNS(C)(=O)=O)cc(C(F)(F)F)cc3s2)c1O [Compound 91, 5-chloro-2-hydroxy-3-methyl-N-(4-((2-(methylsulfonamido)ethoxy)methyl)-6-(trifluoromethyl)benzo[d]thiazol-2-yl)benzamide]
C2C12 cells
  minimal effective concentration: < 5 µM

## CC(=O)N1CCN(Cc2cc(Cl)cc(C(=O)Nc3nc4ccc(C(F)(F)F)cc4s3)c2O)CC1 [Compound 19, 3-((4-acetylpiperazin-1-yl)methyl)-5-chloro-2-hydroxy-N-(6-(trifluoromethyl)benzo[d]thiazol-2-yl)benzamide]
C2C12 cells
  minimal effective concentration: 5 to 10 µM

## O=C(Nc1nc2ccc(C(F)(F)F)cc2s1)c1cc(Cl)cc(CN2CCCC(C(F)(F)F)C2)c1O (stereo not drawn) [Example 61, 5-chloro-2-hydroxy-N-(6-(trifluoromethyl)benzo[d]thiazol-2-yl)-3-((3-(trifluoromethyl)piperidin-1-yl)methyl)benzamide]
C2C12 cells
  minimal effective concentration: < 5 µM

## COCCOCc1cc(Cl)cc(C(=O)Nc2ccc(C(F)(F)F)cc2Cl)c1O [Compound 4, 5-chloro-N-(2-chloro-4-(trifluoromethyl)phenyl)-2-hydroxy-3-((2-methoxyethoxy)methyl)benzamide]
C2C12 cells
  minimal effective concentration: < 5 µM
[1]
  AUC at 24 h: 30000 to 60000 ng·h/mL

## O=C(Nc1ccc(C(F)(F)F)nc1)c1cc(Cl)cc(C2CCOC2)c1O (stereo not drawn) [Example 98, 5-chloro-2-hydroxy-3-(tetrahydrofuran-3-yl)-N-(6-(trifluoromethyl)pyridin-3-yl)benzamide]
C2C12 cells
  minimal effective concentration: > 10 µM

## O=C(Nc1nc2ccc(C(F)(F)F)cc2s1)c1cc(Cl)cc(CN2CCC(O)C2)c1O (stereo not drawn) [Compound 30, 5-chloro-2-hydroxy-3-((3-hydroxypyrrolidin-1-yl)methyl)-N-(6-(trifluoromethyl)benzo[d]thiazol-2-yl)benzamide]
C2C12 cells
  minimal effective concentration: > 10 µM

## COCCNCc1cc(Cl)cc(C(=O)Nc2nc3ccc(C(F)(F)F)cc3s2)c1O [Compound 22, 5-chloro-2-hydroxy-3-(((2-methoxyethyl)amino)methyl)-N-(6-(trifluoromethyl)benzo[d]thiazol-2-yl)benzamide]
C2C12 cells
  minimal effective concentration: < 5 µM

## Cc1cc(Cl)cc(C(=O)Nc2nc3c(C4CCN(C)CC4)cc(C(F)(F)F)cc3s2)c1O [Example 94, 5-chloro-2-hydroxy-3-methyl-N-(4-(1-methylpiperidin-4-yl)-6-(trifluoromethyl)benzo[d]thiazol-2-yl)benzamide]
C2C12 cells
  minimal effective concentration: < 5 µM

## C[C@@H]1CN(Cc2cc(Cl)cc(C(=O)Nc3nc4c(CNS(C)(=O)=O)cc(C(F)(F)F)cc4s3)c2O)C[C@H](C)O1 [Example 72, 5-chloro-3-((cis-2,6-dimethylmorpholino)methyl)-2-hydroxy-N-(4-(methylsulfonamidomethyl)-6-(trifluoromethyl)benzo[d]thiazol-2-yl)benzamide]
C2C12 cells
  minimal effective concentration: < 5 µM

## COCCN(C)Cc1cc(Cl)cc(C(=O)Nc2nc3ccc(C(F)(F)F)cc3s2)c1O [Compound 3, 5-chloro-2-hydroxy-3-(((2-methoxyethyl)(methyl)amino)methyl)-N-(6-(trifluoromethyl)benzo[d]thiazol-2-yl)benzamide]
C2C12 cells
  minimal effective concentration: < 5 µM
[1]
  AUC at 24 h: 10000 to 30000 ng·h/mL

## O=C(Nc1nc2ccc(C(F)(F)F)cc2s1)c1cc(Cl)cc(CN2CCCC(F)(F)C2)c1O [Example 59, 5-chloro-3-((3,3-difluoropiperidin-1-yl)methyl)-2-hydroxy-N-(6-(trifluoromethyl)benzo[d]thiazol-2-yl)benzamide]
C2C12 cells
  minimal effective concentration: < 5 µM

## COCCOCc1cc(C(F)(F)F)cc2sc(NC(=O)c3cc(Cl)cc(CN(CCOC)CCOC)c3O)nc12 [Compound 70, 3-((bis(2-methoxyethyl)amino)methyl)-5-chloro-2-hydroxy-N-(4-((2-methoxyethoxy)methyl)-6-(trifluoromethyl)benzo[d]thiazol-2-yl)benzamide]
C2C12 cells
  minimal effective concentration: < 5 µM

## O=C(Nc1nc2ccc(C(F)(F)F)cc2s1)c1cc(Cl)ccc1O [Compound 31 in WO 2016/081599, reference compound]
[1]; 20 mg/kg
  AUC(0-t) at 24 h: ~2400 ng·h/mL

## COCCOCc1cc(Cl)cc(C(=O)Nc2nc3ccc(C(F)(F)F)cc3s2)c1O [Compound 2, 5-chloro-2-hydroxy-3-((2-methoxyethoxy)methyl)-N-(6-(trifluoromethyl)benzo[d]thiazol-2-yl)benzamide]
C2C12 cells
  minimal effective concentration: < 5 µM
[1]; 10 mg/kg
  AUC(0-t) at 24 h: 485000 ng·h/mL
[1]
  AUC at 24 h: > 120000 ng·h/mL

## COCCOCc1cc(I)cc(C(=O)Nc2nc3ccc(C(F)(F)F)cc3s2)c1O [Compound 46, 2-hydroxy-5-iodo-3-((2-methoxyethoxy)methyl)-N-(6-(trifluoromethyl)benzo[d]thiazol-2-yl)benzamide]
C2C12 cells
  minimal effective concentration: < 5 µM

## COCCOCc1cc(Cl)cc(C(=O)Nc2ccc(C(F)(F)F)nc2Cl)c1O [Compound 47, 5-chloro-N-(2-chloro-6-(trifluoromethyl)pyridin-3-yl)-2-hydroxy-3-((2-methoxyethoxy)methyl)benzamide]
C2C12 cells
  minimal effective concentration: < 5 µM

## COCCOCc1cc(Cl)cc(C(=O)Nc2nc3ccc(OC(F)(F)F)cc3s2)c1O [Compound 5, 5-chloro-2-hydroxy-3-((2-methoxyethoxy)methyl)-N-(6-(trifluoromethoxy)benzo[d]thiazol-2-yl)benzamide]
C2C12 cells
  minimal effective concentration: 5 to 10 µM

## Cc1cc(Cl)cc(C(=O)Nc2nc3c(COCc4ccc(Cl)cc4)cc(C(F)(F)F)cc3s2)c1O [Compound 82, 5-chloro-N-(4-(((4-chlorobenzyl)oxy)methyl)-6-(trifluoromethyl)benzo[d]thiazol-2-yl)-2-hydroxy-3-methylbenzamide]
C2C12 cells
  minimal effective concentration: < 5 µM

## O=C(Nc1ccc(C(F)(F)F)nc1)c1cc(Cl)cc(CN2CCOCC2)c1O [Compound 53, 5-chloro-2-hydroxy-3-(morpholinomethyl)-N-(6-(trifluoromethyl)pyridin-3-yl)benzamide]
C2C12 cells
  minimal effective concentration: < 5 µM

## COCCN(CCOC)Cc1cc(Cl)cc(C(=O)Nc2nc3c(CNS(C)(=O)=O)cc(C(F)(F)F)cc3s2)c1O [Example 74, 3-((bis(2-methoxyethyl)amino)methyl)-5-chloro-2-hydroxy-N-(4-(methylsulfonamidomethyl)-6-(trifluoromethyl)benzo[d]thiazol-2-yl)benzamide]
C2C12 cells
  minimal effective concentration: < 5 µM

## O=C(Nc1nc2ccc(C(F)(F)F)cc2s1)c1cc(Cl)cc(CN2CCCC2C(F)(F)F)c1O (stereo not drawn) [Compound 56, 5-chloro-2-hydroxy-N-(6-(trifluoromethyl)benzo[d]thiazol-2-yl)-3-((2-(trifluoromethyl)pyrrolidin-1-yl)methyl)benzamide]
C2C12 cells
  minimal effective concentration: < 5 µM
